US20260167620A1, “MULTIFUNCTIONAL COMPOUND CAPABLE OF DEGRADING BTK KINASE, AND COMPOSITION AND USE” (HANGZHOU HEALZEN THERAPEUTICS CO., LTD., priority 2021, published 2026)

Target: T1, BTK (Homo sapiens, UniProt Q06187)
T1 construct: endogenous in cells; host or cells: Mino cells
Experiment: BTK degradation activity test in Mino cells (Westernblot or Elisa)
Format: cell-based
Settings: 24-72 h incubation
Protocol: The Mino cell line cells are 0.5˜1 million/well in 6-well plates. The compounds are diluted to different concentrations, added to the plate, and after 24-72 h of incubation, the cells are collected. After the cells were lysed, the total protein concentration in each well was determined with a BCA kit. The amount of BTK is determined using the Westernblot or Elisa method.

T1 sequence (Q06187 whole entry): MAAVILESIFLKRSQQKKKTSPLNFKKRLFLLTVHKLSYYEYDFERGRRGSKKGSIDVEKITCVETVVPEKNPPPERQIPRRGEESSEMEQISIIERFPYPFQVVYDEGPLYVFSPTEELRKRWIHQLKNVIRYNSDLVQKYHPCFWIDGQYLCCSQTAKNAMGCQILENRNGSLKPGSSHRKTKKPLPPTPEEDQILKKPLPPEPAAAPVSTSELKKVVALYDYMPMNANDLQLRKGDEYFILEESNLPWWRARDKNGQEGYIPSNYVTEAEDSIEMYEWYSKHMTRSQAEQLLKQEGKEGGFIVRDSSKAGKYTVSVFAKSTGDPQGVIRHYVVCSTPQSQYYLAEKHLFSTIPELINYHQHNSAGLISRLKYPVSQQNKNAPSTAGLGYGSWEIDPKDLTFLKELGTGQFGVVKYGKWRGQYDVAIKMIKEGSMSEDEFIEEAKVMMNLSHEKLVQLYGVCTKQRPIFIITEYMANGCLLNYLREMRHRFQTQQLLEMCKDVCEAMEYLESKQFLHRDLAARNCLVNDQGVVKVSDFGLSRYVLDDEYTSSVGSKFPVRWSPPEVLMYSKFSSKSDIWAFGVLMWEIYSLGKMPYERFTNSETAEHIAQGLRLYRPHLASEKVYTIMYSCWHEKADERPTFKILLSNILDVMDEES

DC50, < 0.01 µM:
NC(=O)c1nnc(N2CCC[C@@H](O)C2)nc1Nc1ccc(C2CCN(CC3CCN(c4ccc5c(c4)C(=O)N(C4CCC(=O)NC4=O)C5=O)C3)CC2)c(F)c1 (stereo partly drawn) [Compound 067, 5-((4-(1-((1-(2-(2,6-dioxopiperidin-3-yl)-1,3-dioxoisoindolin-5-yl)pyrrolidin-3-yl)methyl)piperidin-4-yl)-3-fluorophenyl)amino)-3-((R)-3-hydroxypiperidin-1-yl)-1,2,4-triazine-6-carboxamide]
CC(C)(C)C(=O)OCN1C(=O)CCC(N2C(=O)c3ccc(N4CCC(CN5CCC(c6ccc(Nc7nc(N8CCCCC8)nnc7C(N)=O)cc6F)CC5)C4)cc3C2=O)C1=O (centres unmarked) [Compound 068, (3-(5-(3-((4-(4-((6-carbamoyl-3-(piperidin-1-yl)-1,2,4-triazin-5-yl)amino)-2-fluorophenyl)piperidin-1-yl)methyl)pyrrolidin-1-yl)-1,3-dioxoisoindolin-2-yl)-2,6-dioxopiperidin-1-yl) methyl pivalate]
CC(OC(=O)C(C)(C)C)N1C(=O)CCC(N2C(=O)c3ccc(N4CCC(CN5CCC(c6ccc(Nc7nc(N8CCCCC8)nnc7C(N)=O)cc6)CC5)C4)cc3C2=O)C1=O (centres unmarked) [Compound 069, 1-(3-(5-(3-((4-(4-((6-carbamoyl-3-(piperidin-1-yl)-1,2,4-triazin-5-yl)amino)phenyl)piperidin-1-yl)methyl)pyrrolidin-1-yl)-1,3-dioxoisoindolin-2-yl)-2,6-dioxopiperidin-1-yl) ethyl pivalate]
CC(OC(=O)C(C)(C)C)N1C(=O)CCC(N2C(=O)c3ccc(N4CCC(CN5CCC(c6ccc(Nc7nc(N8CCN(C)CC8)nnc7C(N)=O)cc6)CC5)C4)cc3C2=O)C1=O (centres unmarked) [Compound 070, 1-(3-(5-(3-((4-(4-((6-carbamoyl-3-(4-methylpiperazin-1-yl)-1,2,4-triazin-5-yl)amino)phenyl)piperidin-1-yl)methyl)pyrrolidin-1-yl)-1,3-dioxoisoindolin-2-yl)-2,6-dioxopiperidin-1-yl) ethyl pivalate]
CC(OC(=O)C(C)(C)C)N1C(=O)CCC(N2C(=O)c3ccc(N4CCC(CN5CCN(c6ccc(Nc7nc(N8CCCCC8)nnc7C(N)=O)cc6F)CC5)C4)cc3C2=O)C1=O (centres unmarked) [Compound 071, 1-(3-(5-(3-((4-(4-((6-carbamoyl-3-(piperidin-1-yl)-1,2,4-triazin-5-yl)amino)-2-fluorophenyl)piperazin-1-yl)methyl)pyrrolidin-1-yl)-1,3-dioxoisoindolin-2-yl)-2,6-dioxopiperidin-1-yl) ethyl pivalate]
CC(OC(=O)C(C)(C)C)N1C(=O)CCN(c2ccc(N3CCN(CC4CCN(c5ccc(Nc6nc(N7CCCCC7)nnc6C(N)=O)cc5F)CC4)CC3)cc2)C1=O (centres unmarked) [Compound 072, 1-(3-(4-(4-((1-(4-((6-carbamoyl-3-(piperidin-1-yl)-1,2,4-triazin-5-yl)amino)-2-fluorophenyl)piperidin-4-yl)methyl)piperazin-1-yl)phenyl)-2,6-dioxotetrahydropyrimidin-1(2H)-yl) ethyl pivalate]
CC(C)[C@H](N)C(=O)OCN1C(=O)CCC(N2C(=O)c3ccc(N4CCC(CN5CCC(c6ccc(Nc7nc(N8CCCCC8)nnc7C(N)=O)cc6)CC5)C4)cc3C2=O)C1=O (stereo partly drawn) [Compound 073, (3-(5-(3-((4-(4-((6-carbamoyl-3-(piperidin-1-yl)-1,2,4-triazin-5-yl)amino)phenyl)piperidin-1-yl)methyl)pyrrolidin-1-yl)-1,3-dioxoisoindolin-2-yl)-2,6-dioxopiperidin-1-yl) methyl L-valinate]
CC(C)[C@H](N)C(=O)OCN1C(=O)CCC(N2C(=O)c3ccc(N4CCC(CN5CCN(c6ccc(Nc7nc(N8CCCCC8)nnc7C(N)=O)cc6F)CC5)C4)cc3C2=O)C1=O (stereo partly drawn) [Compound 074, (3-(5-(3-((4-(4-((6-carbamoyl-3-(piperidin-1-yl)-1,2,4-triazin-5-yl)amino)-2-fluorophenyl)piperazin-1-yl)methyl)pyrrolidin-1-yl)-1,3-dioxoisoindolin-2-yl)-2,6-dioxopiperidin-1-yl) methyl L-valinate]
NC(=O)c1nnc(N2CCCCC2)nc1Nc1ccc(N2CCN(CC3CCN(c4ccc(N5CCC(=O)NC5=O)cc4)CC3)CC2)c(F)c1 [Compound 080, 5-((4-(4-((1-(4-(2,4-dioxotetrahydropyrimidin-1(2H)-yl)phenyl)piperidin-4-yl)methyl)piperazin-1-yl)-3-fluorophenyl)amino)-3-(piperidin-1-yl)-1,2,4-triazine-6-carboxamide]
NC(=O)c1nnc(N2CCCCC2)nc1Nc1ccc(N2CCC(CN3CCN(c4ccc(-c5ccc(=O)[nH]n5)cc4C(F)(F)F)CC3)CC2)c(F)c1 [Compound 089, 5-((3-fluoro-4-(4-((4-(4-(6-oxo-1,6-dihydropyridazin-3-yl)-2-(trifluoromethyl)phenyl)piperazin-1-yl)methyl)piperidin-1-yl)phenyl)amino)-3-(piperidin-1-yl)-1,2,4-triazine-6-carboxamide]
CC(=O)N[C@@H]1CCCN(c2nnc(C(N)=O)c(Nc3ccc(N4CCN(CC5CCN(c6ccc(N7CCC(=O)NC7=O)cc6)CC5)CC4)c(F)c3)n2)C1 [Compound 091, (R)-3-(3-acetamidopiperidin-1-yl)-5-((4-(4-((1-(4-(2,4-dioxotetrahydropyrimidin-1(2H)-yl)phenyl)piperidin-4-yl)methyl)piperazin-1-yl)-3-fluorophenyl)amino)-1,2,4-triazine-6-carboxamide]
CC(=O)N[C@@H]1CCCN(c2nnc(C(N)=O)c(Nc3ccc(N4CCN(CC5CCN(c6ccc(C(=O)NC7CCC(=O)NC7=O)c(F)c6)CC5)CC4)c(F)c3)n2)C1 (stereo partly drawn) [Compound 093, 3-((R)-3-acetamidopiperidin-1-yl)-5-((4-(4-((1-(4-((2,6-dioxopiperidin-3-yl)carbamoyl)-3-fluorophenyl)piperidin-4-yl)methyl)piperazin-1-yl)-3-fluorophenyl)amino)-1,2,4-triazine-6-carboxamide]
CC(=O)N[C@@H]1CCCN(c2nnc(C(N)=O)c(Nc3ccc(N4CCN(CC5CCN(c6ncc(-c7ccc(=O)[nH]n7)cc6C(F)(F)F)CC5)CC4)c(F)c3)n2)C1 [Compound 094, (R)-3-(3-acetamidopiperidin-1-yl)-5-((3-fluoro-4-(4-((1-(5-(6-oxo-1,6-dihydropyridazin-3-yl)-3-(trifluoromethyl)pyridin-2-yl)piperidin-4-yl)methyl)piperazin-1-yl)phenyl)amino)-1,2,4-triazine-6-carboxamide]
CC(=O)N[C@@H]1CCCN(c2nnc(C(N)=O)c(Nc3ccc(N4CCN(CC5CCN(c6ccc(-c7ccc(=O)[nH]n7)cc6C(F)(F)F)CC5)CC4)c(F)c3)n2)C1 [Compound 095, (R)-3-(3-acetamidopiperidin-1-yl)-5-((3-fluoro-4-(4-((1-(4-(6-oxo-1,6-dihydropyridazin-3-yl)-2-(trifluoromethyl)phenyl)piperidin-4-yl)methyl)piperazin-1-yl)phenyl)amino)-1,2,4-triazine-6-carboxamide]
CC(=O)N[C@@H]1CCCN(c2nnc(C(N)=O)c(Nc3ccc(N4CCN(CC5CCN(c6ccc(NC7CCC(=O)NC7=O)nc6)CC5)CC4)c(F)c3)n2)C1 (stereo partly drawn) [Compound 096, 3-((R)-3-acetamidopiperidin-1-yl)-5-((4-(4-((1-(6-((2,6-dioxopiperidin-3-yl)amino)pyridin-3-yl)piperidin-4-yl)methyl)piperazin-1-yl)-3-fluorophenyl)amino)-1,2,4-triazine-6-carboxamide]
CC(=O)N[C@@H]1CCCN(c2nnc(C(N)=O)c(Nc3ccc(N4CCN(CC5CCN(c6ccc(NC7CCC(=O)NC7=O)c(F)c6)CC5)CC4)c(F)c3)n2)C1 (stereo partly drawn) [Compound 097, 3-((R)-3-acetamidopiperidin-1-yl)-5-((4-(4-((1-(4-((2,6-dioxopiperidin-3-yl)amino)-3-fluorophenyl)piperidin-4-yl)methyl)piperazin-1-yl)-3-fluorophenyl)amino)-1,2,4-triazine-6-carboxamide]
NC(=O)c1nnc(N2CCOCC2)nc1Nc1ccc(N2CCN(CC3CCN(c4ccc(N5CCC(=O)NC5=O)cc4)CC3)CC2)c(F)c1 [Compound 099, 5-((4-(4-((1-(4-(2,4-dioxotetrahydropyrimidin-1(2H)-yl)phenyl)piperidin-4-yl)methyl)piperazin-1-yl)-3-fluorophenyl)amino)-3-morpholino-1,2,4-triazine-6-carboxamide]
NC(=O)c1nnc(N2CCOCC2)nc1Nc1ccc(N2CCN(CC3CCN(c4ccc(C(=O)NC5CCC(=O)NC5=O)c(F)c4)CC3)CC2)c(F)c1 (centres unmarked) [Compound 101, 5-((4-(4-((1-(4-((2,6-dioxopiperidin-3-yl)carbamoyl)-3-fluorophenyl)piperidin-4-yl)methyl)piperazin-1-yl)-3-fluorophenyl)amino)-3-morpholino-1,2,4-triazine-6-carboxamide]
NC(=O)c1nnc(N2CCOCC2)nc1Nc1ccc(N2CCN(CC3CCN(c4ncc(-c5ccc(=O)[nH]n5)cc4C(F)(F)F)CC3)CC2)c(F)c1 [Compound 102, 5-((3-fluoro-4-(4-((1-(5-(6-oxo-1,6-dihydropyridazin-3-yl)-3-(trifluoromethyl)pyridin-2-yl)piperidin-4-yl)methyl)piperazin-1-yl)phenyl)amino)-3-morpholino-1,2,4-triazine-6-carboxamide]
NC(=O)c1nnc(N2CCOCC2)nc1Nc1ccc(N2CCN(CC3CCN(c4ccc(-c5ccc(=O)[nH]n5)cc4C(F)(F)F)CC3)CC2)c(F)c1 [Compound 103, 5-((3-fluoro-4-(4-((1-(4-(6-oxo-1,6-dihydropyridazin-3-yl)-2-(trifluoromethyl)phenyl)piperidin-4-yl)methyl)piperazin-1-yl)phenyl)amino)-3-morpholino-1,2,4-triazine-6-carboxamide]
